Results as given in patent US20230293458A1, “MULTIBIOTIC AGENTS AND METHODS OF USING THE SAME” (Flagship Pioneering Innovations V, Inc., priority 2017, published 2023).

Legend:
Assay type in all cases: in vitro ADME
[1] = Stability of multibiotic agents in Simulated Intestinal Fluid (SIF); conditions: simulated intestinal fluid pH 6.7 with pancreatin, 37° C., 1 μM
Summary of the method: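 Compounds at 1 μM final (from 1 mM DMSO stock) incubated at 37 °C with agitation in fresh SIF (FaSSIF plus pancreatin in pH 6.7 phosphate buffer). Aliquots taken at T0 and regular intervals, quenched with 1 volume acetonitrile. Degradation rate determined by LC/MS.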

[2] = Stability of multibiotic agents in Simulated Gastric Fluid (SGF); conditions: simulated gastric fluid pH 1.6 with pepsin, 37° C., 1 μM
Summary of the method: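 Compounds were incubated at 1 μM final at 37 °C in simulated gastric fluid containing NaCl, pH 1.6, with FaSSIF powder and 0.1 mg/mL pepsin. Aliquots were taken at T0 and at regular intervals and quenched with acetonitrile. Degradation rates were determined by LC/MS.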

[3] = Assay 4. Fecal Incubation Stability; conditions: fecal slurry in YCFA media, anaerobic, 1 or 10 μM
Experimental: Assay 4. Fecal Incubation Stability. This assay can be used to assess the stability of a multibiotic agent in a large intestine. All experiments performed in an anaerobic chamber containing 90% nitrogen, 5% hydrogen and 5% carbon dioxide. Fecal matter in a slurry (15% (w/v)) was added to 96 well plates containing YCFA media or other suitable media (1.6 mL). Compounds were added to each individual well to reach a final analyte concentration of 1 or 10 μM, and the material was mixed by pipetting. At predetermined timepoints a sample was removed, quenched with acetonitrile, and analyzed by LC/MS.

Row | SMILES | Assay 3 (SIF) (% @ Remaining 4 hours) [1] | Assay 2 (SGF) (% Remaining @ 4 hours) [2] | Assay 4 (% Remaining at 24 h) [3]
1 | CCCC(=O)Oc1cc(OC(=O)CCC)c2c(c1)O[C@H](c1cc(OC(=O)CCC)c(OC(=O)CCC)c(OC(=O)CCC)c1)[C@H](OC(=O)c1cc(OC(=O)CCC)c(OC(=O)CCC)c(OC(=O)CCC)c1)C2 [Example 15, [(2R,3R)-5,7-di(butanoyloxy)-2-[3,4,5-tri(butanoyloxy)phenyl]chroman-3-yl] 3,4,5-tri(butanoyloxy)benzoate] | C (>75% of the tested compound remaining) | C (>75% of the tested compound remaining) | C (>75% of the tested compound remaining)
2 | CC(=O)Oc1cc(OC(C)=O)c2c(c1)O[C@H](c1cc(OC(C)=O)c(OC(C)=O)c(OC(C)=O)c1)[C@H](OC(=O)c1cc(OC(C)=O)c(OC(C)=O)c(OC(C)=O)c1)C2 [Example 16, [(2R,3R)-5,7-diacetoxy-2-(3,4,5-triacetoxyphenyl)chroman-3-yl] 3,4,5-triacetoxybenzoate] | A (<25% of the tested compound remaining) | C (>75% of the tested compound remaining) | A (<25% of the tested compound remaining)
3 | CCCC(=O)O[C@@H]1[C@@H](OC(=O)CCC)[C@@H](Oc2ccc(N)cc2C(=O)O)OC[C@H]1OC(=O)CCC [Example 20, 5-amino-2-[(2R,3R,4S,5R)-3,4,5-tri(butanoyloxy)tetrahydropyran-2-yl]oxy-benzoic acid] | C (>75% of the tested compound remaining) | C (>75% of the tested compound remaining) | A (<25% of the tested compound remaining)
4 | CCCC(=O)Oc1ccc2c(c1)oc(=O)c1cc(OC(=O)CCC)c(OC(=O)CCC)cc12 [Example 52, 8,9-di(butanoyloxy)-6-oxo-benzo[c]chromen-3-yl] butanoate] |  |  | A (<25% of the tested compound remaining)
5 | O=C(CCc1c[nH]c2ccccc12)Oc1ccc(/C=C/c2cc(OC(=O)CCc3c[nH]c4ccccc34)cc(OC(=O)CCc3c[nH]c4ccccc34)c2)cc1 [Example 71, [4-[(E)-2-[3,5-bis[3-(1H-indol-3-yl)propanoyloxy]phenyl]vinyl]phenyl] 3-(1H-indol-3-yl)propanoate] | C (>75% of the tested compound remaining) | C (>75% of the tested compound remaining) | C (>75% of the tested compound remaining)
6 | CCCC(=O)O[C@H](C)CC(=O)O[C@H]1CO[C@H]2[C@@H]1OC[C@H]2OC(=O)C[C@@H](C)OC(=O)CCC [Example 79, [(3S,3aR,6R,6aR)-6-[(3R)-3-butanoyloxybutanoyl]oxy-2,3,3a,5,6,6a-hexahydrofuro[3,2-b]furan-3-yl] (3R)-3-butanoyloxybutanoate] | B (25-75% of the tested compound remaining) | C (>75% of the tested compound remaining) | B (25-75% of the tested compound remaining)
